Measurements taken from patent US10703764B2, “Benzopiperazine compositions as BET bromodomain inhibitors” (FORMA Therapeutics, Inc., priority 2013, dated 2020).

Assays:
MV4-11 cells = assay: Oncology cell growth assay (3-day proliferation, CellTiter-Glo); assay type: cell-based; conditions: Homo sapiens, MV4-11, 72 h, AML cell line MV4-11, 72 hours, compounds grouped by IC50 range, read-out: MV4-11 IC50 (inhibition of proliferation, gIC50)
Method in brief: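 Luminescence from CellTiter-Glo served as the growth read-out after MV4-11 cells (3000/well) were cultured with compound for 72 hours. Final concentrations spanned 10 to 0.0045 μM in 3-fold steps. gIC50 values were derived by four-parameter logistic fitting relative to DMSO and cell-free controls.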

BRD4 BD1 = biological target: T1, BRD4 BD1 (Homo sapiens, UniProt O60885); assay: AlphaScreen binding assay, BRD4 Bromodomain 1
T1 construct: made in house
Method in brief: (§1)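 An AlphaScreen competition format was used with His-BRD4 BD1 or BD2 and biotin-H4 K5/8/12/16-acetyl peptide, each at matched final levels of 50 nM (BD1) or 100 nM (BD2). Incubation in HEPES/NaCl buffer with 0.1% BSA and 0.01% Triton X-100 ran ≥1 h before IC50 determination.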

BRD4 BD2 = biological target: T2, BRD4 BD2 (Homo sapiens, UniProt O60885); assay: AlphaScreen binding assay, BRD4 Bromodomain 2
T2 construct: made in house
Method in brief: as §1

| SMILES | IC50 (MV4-11 cells) [nM] | IC50 (BRD4 BD1) [nM] | IC50 (BRD4 BD2) [nM] |
| --- | --- | --- | --- |
| CC(=O)N1c2ccc(-c3ccc(C4(O)COC4)cc3)cc2N(C(=O)C2CC2)C[C@@H]1C [Example I-443] | 100 to 500 | 100 to 1000 | < 50 |
| CCC(=O)N1c2ccc(-c3ccc(S(C)(=O)=O)cc3)cc2N(C(=O)c2ccco2)C[C@@H]1C [Example I-365] | > 500 | 1000 to 10000 | < 50 |
| CC(=O)N1c2ccc(-c3ccc(S(=O)(=O)CC(C)C)cc3)cc2N(C(=O)OC(C)C)C[C@@H]1C [Example I-1081] | > 500 | 1000 to 10000 | 50 to 500 |
| CC(=O)N1c2ccc(-c3cnn(C4CC4)c3)cc2N(C(=O)Oc2cccc3ccccc23)C[C@@H]1C [Example I-265] | > 500 | 1000 to 10000 | < 50 |
| CC(=O)N1c2ccc(-c3cnn(C4CCOCC4)c3)cc2N(C(=O)OC(C)C)C[C@@H]1C [Example I-307] | 100 to 500 | 100 to 1000 | 50 to 500 |
| CC(=O)N1c2ccc(-c3cnn(CC(=O)N4CCOCC4)c3)cc2N(C(=O)OC(C)C)C[C@@H]1C [Example I-654] | 100 to 500 | 100 to 1000 | 50 to 500 |
| COc1cccc(OC(=O)N2C[C@H](C)N(C(C)=O)c3ccc(-c4cnn(C5CC5)c4)cc32)c1 [Example I-500] | 100 to 500 | 100 to 1000 | 50 to 500 |
| CC(=O)N1c2ccc(-c3cnn(C4CC4)c3)cc2N(C(=O)OC(CF)CF)C[C@@H]1C [Example I-80, (S)-1,3-difluoropropan-2-yl 4-acetyl-7-(1-cyclopropyl-1H-pyrazol-4-yl)-3-methyl-3,4-dihydroquinoxaline-1(2H)-carboxylate] | 100 to 500 | 100 to 1000 | 50 to 500 |
| CC(=O)N1c2ccc(-c3cnn(C4CCC4)c3)cc2N(C(=O)OC2CCCC2)C[C@@H]1C [Example I-25, (S)-cyclopentyl 4-acetyl-7-(1-cyclobutyl-1H-pyrazol-4-yl)-3-methyl-3,4-dihydroquinoxaline-1(2H)-carboxylate] | < 100 | < 100 | < 50 |
| COC(=O)N1c2ccc(-c3ccc(C(=O)N4CCNCC4)cc3)cc2N(C(=O)C2CC2)C[C@@H]1C [Example I-456] | 100 to 500 | 100 to 1000 | 50 to 500 |
| CC(=O)N1c2ccc(-c3cccc(S(=O)(=O)C4CC4)c3)cc2N(C(=O)C2CCC2)C[C@@H]1C [Example I-1087] | > 500 | 1000 to 10000 | 50 to 500 |
| CCS(=O)(=O)c1cccc(-c2ccc3c(c2)N(C(=O)C2CC2)C[C@H](C)N3C(C)=O)c1 [Example I-1090] | > 500 | 1000 to 10000 | 50 to 500 |
| CC(=O)N1c2ccc(-c3cnn(C4CCCS(=O)(=O)C4)c3)cc2N(C(=O)OC2CCCC2)C[C@@H]1C (stereo partly drawn) [Example I-1148] | 100 to 500 | 100 to 1000 | < 50 |
| CC(=O)N1c2ccc(-c3ccc(S(C)(=O)=O)c(F)c3)cc2N(C(=O)OC(C)C)C[C@@H]1C [Example I-1085] | > 500 | 1000 to 10000 | 50 to 500 |
| CC(=O)N1c2ccc(-c3ccc(S(=O)(=O)NCCO)cc3)cc2N(C(=O)OC2CCCCC2)C[C@@H]1C [Example I-1217] | < 100 | 100 to 1000 | < 50 |
| CCOC(=O)N1C[C@H](C)N(C(C)=O)c2ccc(-c3cc(N4CCCS4(=O)=O)cc(C(F)(F)F)c3)cc21 [Example I-1165] | > 500 | 1000 to 10000 | 50 to 500 |
| COC(=O)N1c2ccc(-c3cnn(CC4CCOCC4)c3)cc2N(C(=O)OC(C)C)C[C@@H]1C [Example I-641] | 100 to 500 | 100 to 1000 | 50 to 500 |
| CC(=O)N1c2ccc(-c3cnn(C4CC4)c3)cc2N(C(=O)Oc2ccccc2F)C[C@@H]1C [Example I-519] | < 100 | 100 to 1000 | 50 to 500 |
| CCC(C)OC(=O)N1C[C@H](C)N(C(C)=O)c2ccc(-c3ccc(S(C)(=O)=O)cc3)cc21 (stereo partly drawn) [Example I-494] | 100 to 500 | 100 to 1000 | 50 to 500 |
| Cc1noc(C)c1Cn1cc(-c2ccc3c(c2)N(C(=O)OC(C)C)C[C@H](C)N3C(=O)C2CC2)cn1 [Example I-617] | 100 to 500 | 100 to 1000 | 50 to 500 |
| CC(=O)N1c2ccc(-c3ccc(C(=O)N4CCCC4)cc3)cc2N(C(=O)c2ccco2)C[C@@H]1C [Example I-282] | 100 to 500 | 1000 to 10000 | < 50 |
| CNS(=O)(=O)c1cccc(-c2ccc3c(c2)N(C(=O)C2CC2)C[C@H](C)N3C(C)=O)c1 [Example I-1104] | 100 to 500 | 1000 to 10000 | 50 to 500 |
| CCOC(=O)N1C[C@H](C)N(C(C)=O)c2ccc(-c3cccc(S(=O)(=O)NC)c3)cc21 [Example I-1106] | 100 to 500 | 1000 to 10000 | 50 to 500 |

| SMILES | IC50 (MV4-11 cells) [nM] | IC50 (BRD4 BD1) [nM] | IC50 (BRD4 BD2) [nM] |
| --- | --- | --- | --- |
| COc1ccccc1OC(=O)N1C[C@H](C)N(C(C)=O)c2ccc(-c3cnn(C4COC4)c3)cc21 [Example I-3, (S)-2-methoxyphenyl 4-acetyl-3-methyl-7-(1-(oxetan-3-yl)-1H-pyrazol-4-yl)-3,4-dihydroquinoxaline-1(2H)-carboxylate] | < 100 | 100 to 1000 | 50 to 500 |
| CC(=O)N1c2ccc(-c3cnn(CCO)c3)cc2N(C(=O)Oc2ccc(F)cc2)C[C@@H]1C [Example I-1015] | 100 to 500 | 100 to 1000 | 50 to 500 |
| CCNC(=O)Cn1cc(-c2ccc3c(c2)N(C(=O)OC(C)C)C[C@H](C)N3C(C)=O)cn1 [Example I-664] | 100 to 500 | 100 to 1000 | 50 to 500 |
| CCN(CC)S(=O)(=O)c1cc(-c2ccc3c(c2)N(C(=O)C2CC2)C[C@H](C)N3C(C)=O)ccc1OC [Example I-1112] | 100 to 500 | 1000 to 10000 | 50 to 500 |
| CC(=O)N1c2ccc(-c3ccc(S(=O)(=O)C(C)C)cc3)cc2N(C(=O)OC2CCOCC2)C[C@@H]1C [Example I-1232] | 100 to 500 | 100 to 1000 | 50 to 500 |
| CC(=O)N1c2ccc(-c3ccc(S(C)(=O)=O)cc3)cc2N(C(=O)c2cc3cccnc3[nH]2)CC1C (stereo not drawn) [Example I-789] | 100 to 500 | 100 to 1000 | < 50 |
| CC(=O)N1c2ccc(-c3ccc(S(=O)(=O)n4cccn4)cc3)cc2N(C(=O)OC2CCOCC2)C[C@@H]1C [Example I-1260] | > 500 | 100 to 1000 | 50 to 500 |
| CC(=O)N[C@@H]1CCN(C(=O)c2ccc(-c3ccc4c(c3)N(C(=O)OC(C)C)C[C@H](C)N4C(=O)C3CC3)cc2)C1 [Example I-568] | 100 to 500 | 100 to 1000 | 50 to 500 |
| CC(=O)N[C@H]1CCN(C(=O)c2ccc(-c3ccc4c(c3)N(C(=O)OC(C)C)C[C@H](C)N4C(C)=O)cc2)C1 [Example I-541] | 100 to 500 | 100 to 1000 | 50 to 500 |
| CC(=O)N1c2ccc(-c3ccc(S(=O)(=O)CC(C)C)cc3)cc2N(C(=O)OC2CCOCC2)C[C@@H]1C [Example I-1240] | 100 to 500 | 100 to 1000 | 50 to 500 |
| CCS(=O)(=O)c1ccc(-c2ccc3c(c2)N(C(=O)OC2CCOCC2)C[C@H](C)N3C(C)=O)cc1 [Example I-1214] | 100 to 500 | 100 to 1000 | 50 to 500 |
| CCS(=O)(=O)Nc1cccc(-c2ccc3c(c2)N(C(=O)OC(C)C)C[C@H](C)N3C(C)=O)c1 [Example I-1057] | 100 to 500 | 100 to 1000 | 50 to 500 |
| CC(C)OC(=O)N1CC(C)N(C(=O)C2CC2)c2ccc(-c3cnn(Cc4c[nH]cn4)c3)cc21 (stereo not drawn) [Example I-616] | 100 to 500 | 100 to 1000 | 50 to 500 |
| CC(=O)N1c2ccc(-c3cnn(C4COC4)c3)cc2N(C(=O)OC2COC2)C[C@@H]1C [Example I-59, (S)-oxetan-3-yl 4-acetyl-3-methyl-7-(1-(oxetan-3-yl)-1H-pyrazol-4-yl)-3,4-dihydroquinoxaline-1(2H)-carboxylate] | > 500 | 100 to 1000 | 50 to 500 |
| COC(=O)N1c2ccc(-c3ccc(C(=O)N(C)CC(=O)N(C)C)cc3)cc2N(C(=O)OC(C)C)C[C@@H]1C [Example I-561] | 100 to 500 | < 100 | 50 to 500 |
| CCOC(=O)N1C[C@H](C)N(C(C)=O)c2ccc(-c3ccc(S(=O)(=O)CC)cc3)cc21 [Example I-1029] | 100 to 500 | 1000 to 10000 | 50 to 500 |
| CC(=O)N1c2ccc(-c3ccc4c(c3)OCO4)cc2N(C(=O)c2ccco2)C[C@@H]1C [Example I-806] | 100 to 500 | 1000 to 10000 | 50 to 500 |
| CC(=O)N1c2ccc(-c3ccc(-c4ccccc4)cc3)cc2N(C(=O)c2ccco2)C[C@@H]1C [Example I-798] | > 500 | 1000 to 10000 | 50 to 500 |
| CC(=O)N1c2ccc(-c3ccc(S(C)(=O)=O)cc3)cc2N(C(=O)c2cc3cnccc3[nH]2)CC1C (stereo not drawn) [Example I-778] | > 500 | 1000 to 10000 | 50 to 500 |
| CCOC(=O)N1C[C@H](C)N(C(C)=O)c2ccc(-c3cccc(NS(=O)(=O)N(C)C)c3)cc21 [Example I-1145] | > 500 | 1000 to 10000 | 50 to 500 |
| CC(=O)N1c2ccc(-c3ccc(S(=O)(=O)C(C)C)cc3)cc2N(C(=O)OC2CCCCC2)C[C@@H]1C [Example I-1231] | 100 to 500 | 100 to 1000 | 50 to 500 |
| CC(=O)N1c2ccc(-c3ccc(C(=O)O)cc3)cc2N(C(=O)c2ccco2)C[C@@H]1C [Example I-799] | > 500 | 1000 to 10000 | 50 to 500 |
